Values quoted from earlier work as cited in patent US6458389B1 (priority 1997, dated 2002).
Where two headings read alike, the source gives them in different places.

What was measured:
[1] = system: rats; settings: rat, in vivo, iv
[2] = system: mice; settings: mice treated orally, toxic dose of 70 mg/kg

## N.N.[Cl][Pt][Cl] [cisplatin]
48 hours after oral administration
  Electron microscope analysis of tissues (kidneys): only slight changes in the kidneys
Intravenous administration
  Electron microscope analysis of tissues (kidneys): symptoms of nephrotoxicity are observable
[1]
  Urea concentrations in the blood, multiplication factor: 14
[2]
  Histopathological change in the kidneys: No histopathological change in the kidneys
